# Measurements reported in US20170014407A1, “PYRIDAZINE DERIVATIVES FOR USE IN THE PREVENTON OR TREATMENT OF AN ATAXIC DISORDER” (TAKEDA PHARMACEUTICAL COMPANY LIMITED, priority 2014, published 2017).
# What was measured:
# [1] = tested on: mice carrying inherited or chemically-induced ataxia mutations; settings: Saigoh et al. 1998, cited from earlier work; for Concentration of endogenous D-serine in the cerebellum: ataxic mutant mice; for Effect on ataxia: mice carrying inherited or chemically-induced ataxia mutations
# C57B16 mice = assay: Delayed eyeblink conditioning test (dEBC); assay type: in vivo, mouse; settings: Group E, scopolamine 0.3 mg/kg subcutaneous
# Description: Three-month old, male C57B16 mice were implanted with recording electrodes in the orbicularis oculi muscle and with stimulating electrodes on the supraorbital nerve. For classical conditioning, animals were presented with a 350-ms tone as a conditioned stimulus (CS) at the end of which received an electrical pulse in the supraorbital nerve as unconditioned stimulus (US). Classical conditioning was achieved using a delay paradigm. For this, a tone (350 ms, 2 kHz, 85-90 dB) was presented as CS. The US consisted of a paired pulse with 1 millisecond of inter-pulse interval. Each pulse lasted for 0.1 millisecond. The US was presented at the end of the CS. A total of two habituation, ten conditioning, and five extinction sessions were carried out for each animal. Further details of this method can be found in the article by Gruart A., “Involvement of the CA3-CA1 synapse in the acquisition of associative learning in behaving mice”, J. Neurosci., 2006, 26, 1077-1087.
# The effects on associative learning of a DAAO inhibitor compound of the invention were compared against different control and scopolamine-administered groups. Scopolamine is io a non-selective muscarinic receptor antagonist shown to consistently produce impairment of learning in rodents (see Klinkenberg, A., “The validity of scopolamine as a pharmacological model for cognitive impairment: A review of animal behavioral studies” Neuroscience and Biobehavioral Reviews, 2010, 34, 1307-1350.
# is Nine groups, each containing 15 mice except for the untreated control group which contained 14 mice, were tested:
# Group A was orally administered with Vehicle 1 (an aqueous solution of 0.5% methyl cellulose);
# Group B was orally administered with a solution of a DAAO inhibitor of formula (I) in Vehicle 1 at a dose of 0.1 mg/kg (Solution 1);
# Group C was orally administered with a solution of a DAAO inhibitor of formula (I) (the same one as for Group B) in Vehicle 1 at a dose of 1.0 mg/kg (Solution 2);
# Group D was administered subcutaneously with Vehicle 2 (distilled water);
# Group E was administered subcutaneously with a solution of scopolamine in Vehicle 2 at a dose of 0.3 mg/kg (Solution 3);
# Group F was administered orally with Solution 1 and subcutaneously with Solution 3;
# Group G was administered orally with Solution 2 and subcutaneously with Solution 3;
# Group H was administered orally with Vehicle 1 and subcutaneously with Vehicle 2;
# Group I was the untreated control group.
Compound,Concentration of endogenous D-serine in the cerebellum [1],Effect on ataxia [1],Mean Percentage of Conditioned Responses (%) (C57B16 mice; conditioning session 1),Mean Percentage of Conditioned Responses (%) (C57B16 mice; conditioning session 2),Mean Percentage of Conditioned Responses (%) (C57B16 mice; conditioning session 3),Mean Percentage of Conditioned Responses (%) (C57B16 mice; conditioning session 4),Mean Percentage of Conditioned Responses (%) (C57B16 mice; conditioning session 5),Mean Percentage of Conditioned Responses (%) (C57B16 mice; conditioning session 6),Mean Percentage of Conditioned Responses (%) (C57B16 mice; conditioning session 7),Mean Percentage of Conditioned Responses (%) (C57B16 mice; conditioning session 8),Mean Percentage of Conditioned Responses (%) (C57B16 mice; conditioning session 9),Mean Percentage of Conditioned Responses (%) (C57B16 mice; conditioning session 10),Mean Percentage of Conditioned Responses (%) (C57B16 mice; extinction session 1),Mean Percentage of Conditioned Responses (%) (C57B16 mice; extinction session 2),Mean Percentage of Conditioned Responses (%) (C57B16 mice; extinction session 3),Mean Percentage of Conditioned Responses (%) (C57B16 mice; extinction session 4),Mean Percentage of Conditioned Responses (%) (C57B16 mice; extinction session 5),Mean Percentage of Conditioned Responses (%) (C57B16 mice; habituation session 1),Mean Percentage of Conditioned Responses (%) (C57B16 mice; habituation session 2)
CCOC(=O)[C@H](N)CO [D-serine ethylester],increase in the concentration of endogenous D-serine in the cerebellum,ameliorating effect on ataxia,–,–,–,–,–,–,–,–,–,–,–,–,–,–,–,–,–
N[C@@H]1CONC1=O [D-cycloserine],increase in the concentration of endogenous D-serine in the cerebellum,ameliorating effect on ataxia,–,–,–,–,–,–,–,–,–,–,–,–,–,–,–,–,–
CN1[C@@H]2C[C@@H](OC(=O)[C@H](CO)c3ccccc3)C[C@H]1[C@@H]1O[C@@H]12 [scopolamine],–,–,37.67,40.33,43.78,43.33,45.67,45.98,48.78,51.56,51.33,52.56,51.22,45.78,43.78,42.00,43.22,26.44,27.44
